Laboratory results as given in US9029414B2, “Triterpenoid compounds and methods of use thereof” (Biotechnology Research Corporation, priority 2008, dated 2015).

Legend:
[1] = biological target: human MC4 receptor (Homo sapiens, UniProt P32245); test: Cellular receptor functional assay (cAMP), MC4; type: cell-based; conditions: cells over-expressing MC4
Experimental: FIG. 1. […] DA001 alone is unable to induce cAMP increase (blue square dots).
(§1) DA001 inhibits ligand binding to MC1 and MC4 receptors. To determine whether the inhibitory effect is due to agonist or antagonist activity, DA001 was evaluated at 6 or 8 concentrations in cellular assays assessing receptor function. Upon ligand binding, the MC1 or MC4 receptor is activated which leads to an increase in intracellular cyclic AMP. […] DA001 alone is unable to induce cAMP increase (blue square dots). […] DA001 was further evaluated with MC2 receptor functional assay. Upon ligand binding, the MC2 receptor is activated which leads to an increase in intracellular cyclic AMP.

[2] = biological target: T1, human MC1 receptor (Homo sapiens, UniProt Q01726); test: Radioligand competition binding assay, MC1
T1 sequence (Q01726 whole entry): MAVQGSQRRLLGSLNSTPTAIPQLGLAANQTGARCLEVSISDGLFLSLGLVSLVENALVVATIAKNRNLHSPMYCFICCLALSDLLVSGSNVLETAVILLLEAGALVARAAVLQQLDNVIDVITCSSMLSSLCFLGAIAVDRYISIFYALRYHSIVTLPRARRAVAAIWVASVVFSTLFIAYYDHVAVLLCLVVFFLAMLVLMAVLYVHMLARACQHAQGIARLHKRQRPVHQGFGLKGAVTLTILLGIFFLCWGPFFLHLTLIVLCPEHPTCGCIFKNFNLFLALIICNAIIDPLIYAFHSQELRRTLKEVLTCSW
Experimental: (§2) DA001 was evaluated against 109 receptor binding assays and 17 enzyme assays, comprising of selective, central and peripheral therapeutically-relevant targets. Radioligand competition assays were conducted whereby DA001 was tested at one concentration (10 μM) in duplicate. […] It could compete with the radioligand [^125I-NDP-alpha-melanocyte-stimulating hormone (α-MSH)] binding for MC1 and MC4 but not MC3 and MC5 nor the related family, the melanin concentrating hormone receptors (MCH1 and MCH2).
To determine the IC50 for DA001 to inhibit α-MSH binding on MC1 and MC4 receptor, the compound was further characterized by a dose-dependent study. DA001 was evaluated with 8 concentrations on MC1 and MC4 receptor binding assays.
The specific ligand binding to the receptors is defined as the difference between the total binding and the nonspecific binding determined in the presence of an excess of unlabelled ligand. The results are expressed as a percent of control specific binding [(measured specific binding/control specific binding)×100] and as a percent inhibition of control specific binding {100−[(measured specific binding/control specific binding)×100]} obtained in the presence of DA001. The IC50 values (concentration causing a half-maximal inhibition of control specific binding) and Hill coefficients (nH) were determined by non-linear regression analysis of the competition curves generated with mean replicate values using Hill equation curve fitting (Y=D+[(A−D)/(1+(C/C50)nH)], where Y=specific binding, D=minimum specific binding, A=maximum specific binding, C=compound concentration, C50=IC50, and nH=slope factor). This analysis was performed using a software developed at Cerep (Hill software) and validated by comparison with data generated by the commercial software SigmaPlot® 4.0 for Windows® (© 1997 by SPSS Inc.).

[3] = biological target: T1, human MC1 receptor; test: Cellular receptor functional assay (cAMP), MC1; type: cell-based
Experimental: as §1

[4] = biological target: T2, MC2 receptor (Homo sapiens, UniProt Q01718); test: Cellular receptor functional assay (cAMP), MC2; type: cell-based
T2 construct: expressed in transfected cells
T2 sequence (Q01718 whole entry): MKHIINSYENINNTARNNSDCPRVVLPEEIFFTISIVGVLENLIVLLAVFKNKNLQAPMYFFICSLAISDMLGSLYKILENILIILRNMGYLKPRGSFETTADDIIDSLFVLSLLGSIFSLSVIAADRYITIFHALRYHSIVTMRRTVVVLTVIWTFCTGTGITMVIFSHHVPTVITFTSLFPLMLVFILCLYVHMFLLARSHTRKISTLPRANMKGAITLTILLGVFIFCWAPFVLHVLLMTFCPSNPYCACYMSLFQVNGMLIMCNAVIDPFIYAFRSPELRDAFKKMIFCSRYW
T2 sequence (Q8TCY5 whole entry partner): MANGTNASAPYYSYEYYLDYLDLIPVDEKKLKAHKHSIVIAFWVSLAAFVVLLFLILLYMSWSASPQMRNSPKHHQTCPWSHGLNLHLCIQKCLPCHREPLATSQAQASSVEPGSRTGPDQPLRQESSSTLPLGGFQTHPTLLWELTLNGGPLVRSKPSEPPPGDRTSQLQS
Experimental: as §1

[5] = test system: kainate receptor; test: Radioligand competition binding assay, kainate; conditions: 10 μM in duplicate
Experimental: as §2

[6] = biological target: serotonin (5-HT1D subtype) receptor (Homo sapiens, UniProt P28221); test: Radioligand competition binding assay, 5-HT1D; conditions: 10 μM in duplicate, read-out: % inhibition of control specific binding
Sequence of serotonin (5-HT1D subtype) receptor (P28221 whole entry): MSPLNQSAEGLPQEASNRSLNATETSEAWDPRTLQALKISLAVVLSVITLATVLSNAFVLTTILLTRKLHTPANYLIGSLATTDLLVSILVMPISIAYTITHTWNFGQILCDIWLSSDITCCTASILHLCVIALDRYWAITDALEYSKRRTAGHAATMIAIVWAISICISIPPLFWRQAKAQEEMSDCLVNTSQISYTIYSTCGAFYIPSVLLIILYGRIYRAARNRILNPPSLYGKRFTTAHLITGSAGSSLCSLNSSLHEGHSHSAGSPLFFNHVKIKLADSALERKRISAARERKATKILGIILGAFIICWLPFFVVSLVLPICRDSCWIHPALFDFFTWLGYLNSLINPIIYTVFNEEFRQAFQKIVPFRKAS
Experimental: as §2

[7] = test system: BALB/c mice; test: Murine model of oxazolone-induced ear edema; type: in vivo
Experimental: This is a contract research performed by Washington Biotechnology Inc., Columbia, Md., protocol 1041. On day 0, 42 BALB/c mice (female, Harlan Sprague-Dawley, 5-6 weeks) were shaved on the ventral surface of the right ear. 100 μl of the 5% oxazolone solution (Sigma) was then applied to the saved ear. The treated mice were then returned to the cage and kept for additional 6 days. On day 7, the mice were weighed and dosed orally with 10 ml/kg water or DA021 at either 30 mg/kg or 100 mg/kg or topically applied on both sides of both ears with 25 μl betamethasone. Thirty minutes after oral dosing, 5 μl of 3% oxazolone was applied to both sides of the right ear and 5 μl of acetone was applied to both sides of the contralateral ear. Twenty-four hours after 3% oxazolone/acetone application, the mice were euthanized, the ears removed and weighed.
To evaluate the efficacy and potency of DA021 in acute inflammation, an oxazolone-induced ear edema model was carried out in mice. Oxazolone-induced ear edema model is a commonly used skin inflammatory animal model. Oxazolone (OA) is an allergen that induces immunological responses that lead to surface edema. […] Betamethasone (BMS) which was used as a positive control, is a corticosteroid that is used as an anti-itching cream and other anti-inflammatory remedies.
Mice were then treated with betamethasone (BMS, mg, topical) or DA021 (mg/kg, p.o.) and the ears were removed and weighed. N=10 per group, significance (p-value) was calculated versus OA+vehicle using the Student's T-test, *=P≦1×10^−7, #=P≦1×10^−12.

[8] = biological target: DP receptor (Homo sapiens, UniProt Q13258); test: Radioligand competition binding assay, DP; conditions: target PGD, compound at 10 μM in duplicate, read-out: % inhibition of control specific binding
Sequence of DP receptor (Q13258 whole entry): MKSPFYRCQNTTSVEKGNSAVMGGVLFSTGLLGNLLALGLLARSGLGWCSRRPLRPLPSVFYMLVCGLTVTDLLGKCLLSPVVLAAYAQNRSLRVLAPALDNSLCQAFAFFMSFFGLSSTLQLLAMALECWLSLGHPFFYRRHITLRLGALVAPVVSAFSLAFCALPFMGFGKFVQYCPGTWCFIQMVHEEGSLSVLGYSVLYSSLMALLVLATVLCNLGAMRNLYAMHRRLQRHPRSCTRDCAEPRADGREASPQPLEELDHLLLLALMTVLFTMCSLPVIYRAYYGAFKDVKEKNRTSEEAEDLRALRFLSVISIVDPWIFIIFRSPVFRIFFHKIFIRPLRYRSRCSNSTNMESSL
Experimental: To determine the targets of DA compounds, the compound was assessed in binding assays for the family of prostanoid receptors. Both compounds were tested at a single concentration (10 μM) in duplicate. DA001 and DA021 inhibit the ligand binding of prostaglandin E2 receptors EP1, EP2 and EP4 and moderately to prostaglandin (PGF) to its receptor (FP), but not prostaglandin I (PGI2), thromoboxane A and prostaglandin D2 to their receptors.

Sequence of human MC4 receptor (P32245 whole entry): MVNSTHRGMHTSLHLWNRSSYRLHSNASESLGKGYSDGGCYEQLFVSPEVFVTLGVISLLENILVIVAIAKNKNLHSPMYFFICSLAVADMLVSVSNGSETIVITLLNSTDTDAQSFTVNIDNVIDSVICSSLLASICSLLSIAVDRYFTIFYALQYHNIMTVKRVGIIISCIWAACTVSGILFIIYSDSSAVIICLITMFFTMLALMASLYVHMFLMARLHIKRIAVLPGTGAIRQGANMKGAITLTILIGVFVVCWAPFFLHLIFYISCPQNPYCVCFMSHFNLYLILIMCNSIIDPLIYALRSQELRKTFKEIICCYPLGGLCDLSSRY

C=C(C)[C@@H]1CC[C@]2(C(=O)O)CC[C@]3(C)C(CC[C@@H]4[C@@]5(C)CC[C@H](O[C@@H]6OC[C@H](O)[C@H](O)[C@H]6O[C@@H]6O[C@@H](C)[C@H](O)[C@@H](O)[C@H]6O)[C@@](C)(CO)[C@@H]5CC[C@]43C)[C@@H]12 (stereo partly drawn) [DA001, 3-O-[α-L-rhamnopyranosyl-(1→2)-α-L-arabinopyranosyl]-3,23-dihydroxy-20(29)-lupen-28-oic acid]
agonist effect (cAMP increase by compound alone) ([1]; compound alone): did not induce an increase in cAMP
IC50 ([1]; inhibition of cAMP increase by NDP-α-MSH, read-out: IC50, antagonist effect): 17 µM
Ki [2]: 5.2 µM
IC50 ([2]; 8 concentrations): 10 µM
nH ([2]; Hill coefficient): 0.9
Kb ([3]; antagonist effect at human MC1 receptor): 5.3 µM
IC50 ([3]; inhibition of cAMP increase by NDP-α-MSH, cells over-expressing MC1, read-out: IC50, antagonist effect): 50 µM
Agonist effect, cAMP measurement ([4]; absence of ligand ACTH1-39, cells over-expressing MC2): 0
Antagonist effect, cAMP measurement ([4]; presence of ligand ACTH1-39, cells over-expressing MC2): −8
% inhibition of control specific binding [5]: 35%
inhibition at 10 µM [6]: 30%

C=C(C)[C@@H]1CC[C@]2(/C=N/O)CC[C@]3(C)C(CCC4[C@@]5(C)CCC(=O)[C@@](C)(CO)[C@@H]5CC[C@]43C)C12 (stereo partly shown) [DA021]
Change in Ear Weight (mg), Average ([7]; 30 mg/kg po): 48.3 mg
Change in Ear Weight, % Inhibition ([7]; 30 mg/kg po): 31.7%
Change in Ear Weight (mg), Average ([7]; 100 mg/kg po): 33.3 mg
Change in Ear Weight, % Inhibition ([7]; 100 mg/kg po): 52.9%
inhibition at 10 µM [8]: 0%
